According to US6525001B1, “Substituted pyrimidine and pyridine herbicides” (Mid-American Commercialization Corporation, priority 1997, dated 2003):

What was measured:
Format in all cases: in vivo
[1] = test system: purple nutsedge (Cyperus rotundus); experiment: Test B pre-/postemergence; parameters: key: 0 is no effect; 10 is complete control
From the text: (§1) Seeds of bedstraw (Galium aparine), blackgrass (Alopecurus myosuroides), broadleaf signalgrass (Brachiaria decumbens), cocklebur (Xanthium strumarium), corn (Zea mays), crabgrass (Digitaria sanguinalis), giant foxtail (Setaria faberii), lambsquarters (Chenopodium album), momingglory (Ipomoea hederacea), pigweed (Amaranthus retroflexus), rape (Brassica napus), soybean (Glycine max), sugar beet (Beta vulgaris), velvetleaf (Abutilon theophrasti), wheat (Triticum aestivum), wild oat (Avena fatua) and purple nutsedge (Cyperus rotundus) tubers were planted and treated preemergence with test chemicals formulated in a non-phytotoxic solvent mixture which included a surfactant.
(§2) At the same time, these crop and weed species were also treated with postemergence applications of test chemicals formulated in the same manner. Plants ranged in height from 2 to 18 cm (1- to 4-leaf stage) for postemergence treatments. Plant species in the flood test consisted of rice (Oryza sativa), smallflower flatsedge (Cyperus difformis), duck salad (Heteranthera limosa) and bamyardgrass (Echinochloa crus-galli) grown to the 2-leaf stage for testing. Treated plants and controls were maintained in a greenhouse for twelve to sixteen days, after which all species were compared to controls and visually evaluated. Plant response ratings, summarized in Table B, are based on a scale of 0 to 10 where 0 is no effect and 10 is complete control. A dash (−) response means no test result.

[2] = test system: rape (Brassica napus); experiment: Test B pre-/postemergence; parameters: key: 0 is no effect; 10 is complete control
From the text: as §1, §2

[3] = test system: soybean (Glycine max); experiment: Test B pre-/postemergence; parameters: key: 0 is no effect; 10 is complete control
From the text: as §1, §2

[4] = test system: sugar beet (Beta vulgaris); experiment: Test B pre-/postemergence; parameters: key: 0 is no effect; 10 is complete control
From the text: as §1, §2

[5] = test system: velvetleaf (Abutilon theophrasti); experiment: Test B pre-/postemergence; parameters: key: 0 is no effect; 10 is complete control
From the text: as §1, §2

[6] = test system: wheat (Triticum aestivum); experiment: Test B pre-/postemergence; parameters: key: 0 is no effect; 10 is complete control
From the text: as §1, §2

[7] = test system: wild oat (Avena fatua); experiment: Test B pre-/postemergence; parameters: key: 0 is no effect; 10 is complete control
From the text: as §1, §2

[8] = test system: bamyardgrass (Echinochloa crus-galli); experiment: Test B flood test
Procedure, shortened: (§3)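 Read-out is a visual response score from 0 (no effect) to 10 (complete control), assigned by comparison with untreated controls. Treatment was applied at the 2-leaf stage, and plants stayed in the greenhouse for twelve to sixteen days before scoring.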

[9] = test system: duck salad (Heteranthera limosa); experiment: Test B flood test
Procedure, shortened: as §3

[10] = test system: rice (Oryza sativa); experiment: Test B flood test
Procedure, shortened: as §3

[11] = test system: smallflower flatsedge (Cyperus difformis); experiment: Test B flood test
Procedure, shortened: as §3

[12] = Rate 250 g/ha, Postemergence (so in the source)
[13] = Rate 62 g/ha, Postemergence (flood test)
[14] = Rate 125 g/ha, Postemergence, flood test
[15] = Rate 250 g/ha, Postemergence (flood test species)
[16] = Rate 125 g/ha, Postemergence section (flood test species)

Cc1cnc(-c2ccc(Cl)cc2)nc1Cc1cccc(C(F)(F)F)c1 [Compound 28]
Plant response rating, Nutsedge ([1]; Rate 62 g/ha, Postemergence): 0 | Nutsedge plant response rating ([1]; Rate 62 g/ha, Preemergence): 0 | Nutsedge plant response rating ([1]; Rate 125 g/ha, Postemergence): 3 | Nutsedge plant response rating ([1]; Rate 125 g/ha, Preemergence): 0 | Plant response rating, Nutsedge [1, 12]: 0 | Plant response rating, Rape ([2]; Rate 62 g/ha, Postemergence): 9 | Rape plant response rating ([2]; Rate 62 g/ha, Preemergence): 1 | Rape plant response rating ([2]; Rate 125 g/ha, Postemergence): 9 | Rape plant response rating ([2]; Rate 125 g/ha, Preemergence): 2 | Plant response rating, Rape ([2]; Rate 250 g/ha, Postemergence): 10 | Plant response rating, Rape [2, 12]: 4 | Plant response rating, Soybean ([3]; Rate 62 g/ha, Postemergence): 4 | Soybean plant response rating ([3]; Rate 62 g/ha, Preemergence): 0 | Soybean plant response rating ([3]; Rate 125 g/ha, Postemergence): 7 | Plant response rating, Soybean ([3]; Rate 125 g/ha, Preemergence): 0 | Plant response rating, Soybean ([3]; Rate 250 g/ha, Postemergence): 7 | Plant response rating, Soybean [3, 12]: 1 | Plant response rating, Sugarbeets ([4]; Rate 62 g/ha, Postemergence): 9 | Sugarbeets plant response rating ([4]; Rate 62 g/ha, Preemergence): 0 | Sugarbeets plant response rating ([4]; Rate 125 g/ha, Postemergence): 9 | Plant response rating, Sugarbeets ([4]; Rate 125 g/ha, Preemergence): 2 | Plant response rating, Sugarbeets ([4]; Rate 250 g/ha, Postemergence): 10 | Plant response rating, Sugarbeets [4, 12]: 3 | Plant response rating, Velvetleaf ([5]; Rate 62 g/ha, Postemergence): 3 | Velvetleaf plant response rating ([5]; Rate 62 g/ha, Preemergence): 1 | Velvetleaf plant response rating ([5]; Rate 125 g/ha, Postemergence): 4 | Plant response rating, Velvetleaf ([5]; Rate 125 g/ha, Preemergence): 1 | Plant response rating, Velvetleaf ([5]; Rate 250 g/ha, Postemergence): 8 | Plant response rating, Velvetleaf [5, 12]: 2 | Wheat plant response rating ([6]; Rate 62 g/ha, Postemergence): 3 | Wheat plant response rating ([6]; Rate 62 g/ha, Preemergence): 0 | Wheat plant response rating ([6]; Rate 125 g/ha, Postemergence): 4 | Plant response rating, Wheat ([6]; Rate 125 g/ha, Preemergence): 0 | Plant response rating, Wheat ([6]; Rate 250 g/ha, Postemergence): 5 | Plant response rating, Wheat [6, 12]: 0 | Wild oats plant response rating ([7]; Rate 62 g/ha, Postemergence): 4 | Wild oats plant response rating ([7]; Rate 62 g/ha, Preemergence): 3 | Wild oats plant response rating ([7]; Rate 125 g/ha, Postemergence): 5 | Plant response rating, Wild oats ([7]; Rate 125 g/ha, Preemergence): 3 | Plant response rating, Wild oats ([7]; Rate 250 g/ha, Postemergence): 6 | Plant response rating, Wild oats [7, 12]: 4 | Plant response rating, Barnyardgrass [8, 13]: 3 | Plant response rating, Barnyardgrass [8, 14]: 4 | Plant response rating, Barnyardgrass [8, 15]: 5 | Plant response rating, Ducksalad [9, 13]: 2 | Plant response rating, Ducksalad [9, 14]: 3 | Plant response rating, Ducksalad [9, 15]: 6 | Plant response rating, Rice [10, 13]: 2 | Rice plant response rating [10, 16]: 2 | Plant response rating, Rice [10, 15]: 3 | Plant response rating, S. Flatsedge [11, 13]: 5 | S. Flatsedge plant response rating [11, 16]: 8 | Plant response rating, S. Flatsedge [11, 15]: 8
